Experimental data reported in US5556744A, “Methods and compositions for diagnosing and treating certain HIV infected patients” (The Trustees of the University of Pennsylvania, priority 1994, dated 1996).

Legend:
[1] = system: maternal HIV+ sera (antibodies); assay: RIA / ELISA binding of maternal HIV+ sera to gp120 and gp41 peptides (Example 3); parameters: species or system human
How it was run: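 Maternal sera, diluted 1:50 and 1:500, were bound overnight at 4°C to peptides immobilized at 10 μg/ml (pH 9.6 carbonate) and blocked with 1% BSA. Read-out was ¹²⁵I-labelled anti-human IgG counts or HRP-TMB OD450. Signal with peptide minus without was expressed relative to seronegative serum.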

[2] = system: maternal sera (antibodies); assay: ELISA peptide-binding of maternal sera (Example 6); parameters: species or system human
How it was run: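 HIV-1 envelope peptides averaging 16 amino acids, covering external and transmembrane glycoprotein, were probed by ELISA. Third-trimester maternal sera, classed as transmitter or non-transmitter by child diagnosis, were each run on at least 40 peptides. Values give percent of sera binding a peptide.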

## EGGERDRDRSIRLVN [Peptide 129]
[1]; Serum No. 1, Non-Transmission Group
  Binding of maternal HIV+ serum to peptide (sera/NHS ratio): + (which value is between 2 to 3)
[1]; Serum No. 2, Non-Transmission Group
  Binding of maternal HIV+ serum to peptide (sera/NHS ratio): - (specific OD450 or cpm of sera sample binding to peptide divided by the specific OD450 or cpm of NHS sample binding to peptide, which value is less than 2)
[1]; Serum No. 3, Non-Transmission Group
  Binding of maternal HIV+ serum to peptide (sera/NHS ratio): - (specific OD450 or cpm of sera sample binding to peptide divided by the specific OD450 or cpm of NHS sample binding to peptide, which value is less than 2)
[1]; Serum No. 4, Transmission Group
  Binding of maternal HIV+ serum to peptide (sera/NHS ratio): - (specific OD450 or cpm of sera sample binding to peptide divided by the specific OD450 or cpm of NHS sample binding to peptide, which value is less than 2)
[1]; Serum No. 5, Transmission Group
  Binding of maternal HIV+ serum to peptide (sera/NHS ratio): - (specific OD450 or cpm of sera sample binding to peptide divided by the specific OD450 or cpm of NHS sample binding to peptide, which value is less than 2)
[1]; Serum No. 6, Non-Transmission Group
  Binding of maternal HIV+ serum to peptide (sera/NHS ratio): - (specific OD450 or cpm of sera sample binding to peptide divided by the specific OD450 or cpm of NHS sample binding to peptide, which value is less than 2)
[1]; Serum No. 7, Non-Transmission Group
  Binding of maternal HIV+ serum to peptide (sera/NHS ratio): - (specific OD450 or cpm of sera sample binding to peptide divided by the specific OD450 or cpm of NHS sample binding to peptide, which value is less than 2)
[1]; Serum No. 8, Non-Transmission Group
  Binding of maternal HIV+ serum to peptide (sera/NHS ratio): - (specific OD450 or cpm of sera sample binding to peptide divided by the specific OD450 or cpm of NHS sample binding to peptide, which value is less than 2)
[1]; Serum No. 9, Non-Transmission Group
  Binding of maternal HIV+ serum to peptide (sera/NHS ratio): - (specific OD450 or cpm of sera sample binding to peptide divided by the specific OD450 or cpm of NHS sample binding to peptide, which value is less than 2)
[1]; Serum No. 10, Transmission Group
  Binding of maternal HIV+ serum to peptide (sera/NHS ratio): - (specific OD450 or cpm of sera sample binding to peptide divided by the specific OD450 or cpm of NHS sample binding to peptide, which value is less than 2)
[1]; Serum No. 11, Non-Transmission Group
  Binding of maternal HIV+ serum to peptide (sera/NHS ratio): - (specific OD450 or cpm of sera sample binding to peptide divided by the specific OD450 or cpm of NHS sample binding to peptide, which value is less than 2)
[1]; Serum No. 12, Non-Transmission Group
  Binding of maternal HIV+ serum to peptide (sera/NHS ratio): - (specific OD450 or cpm of sera sample binding to peptide divided by the specific OD450 or cpm of NHS sample binding to peptide, which value is less than 2)
[1]; Serum No. 13, Transmission Group
  Binding of maternal HIV+ serum to peptide (sera/NHS ratio): - (specific OD450 or cpm of sera sample binding to peptide divided by the specific OD450 or cpm of NHS sample binding to peptide, which value is less than 2)
[1]; Serum No. 14, Transmission Group
  Binding of maternal HIV+ serum to peptide (sera/NHS ratio): - (specific OD450 or cpm of sera sample binding to peptide divided by the specific OD450 or cpm of NHS sample binding to peptide, which value is less than 2)
[1]; Serum No. 15, Transmission Group
  Binding of maternal HIV+ serum to peptide (sera/NHS ratio): - (specific OD450 or cpm of sera sample binding to peptide divided by the specific OD450 or cpm of NHS sample binding to peptide, which value is less than 2)
[1]; Serum No. 16, Non-Transmission Group
  Binding of maternal HIV+ serum to peptide (sera/NHS ratio): - (specific OD450 or cpm of sera sample binding to peptide divided by the specific OD450 or cpm of NHS sample binding to peptide, which value is less than 2)
[1]; Serum No. 17, Non-Transmission Group
  Binding of maternal HIV+ serum to peptide (sera/NHS ratio): - (specific OD450 or cpm of sera sample binding to peptide divided by the specific OD450 or cpm of NHS sample binding to peptide, which value is less than 2)
[1]; Serum No. 18, Non-Transmission Group
  Binding of maternal HIV+ serum to peptide (sera/NHS ratio): - (specific OD450 or cpm of sera sample binding to peptide divided by the specific OD450 or cpm of NHS sample binding to peptide, which value is less than 2)
[1]; Serum No. 19, Transmission Group
  Binding of maternal HIV+ serum to peptide (sera/NHS ratio): - (specific OD450 or cpm of sera sample binding to peptide divided by the specific OD450 or cpm of NHS sample binding to peptide, which value is less than 2)
[1]; Serum No. 20, Non-Transmission Group
  Binding of maternal HIV+ serum to peptide (sera/NHS ratio): - (specific OD450 or cpm of sera sample binding to peptide divided by the specific OD450 or cpm of NHS sample binding to peptide, which value is less than 2)
[2]; Non-Transmitters, N = 12
  Number of Non-Transmitters which bound to peptide: 0
  Percent of Non-Transmitters which bound to peptide: 0%
[2]; Transmitters, N = 4
  Number of Transmitters which bound to peptide: 0
  Percent of Transmitters which bound to peptide: 0%
